pEC50: −log10 of the molar value. Like-named read-outs stand apart in the source and are kept apart here. *1 amine or outer side, *2 acyl side, *3 side chain or, on linkers, in order; H or OH if unused. Where a SMILES comes first, the peptide text is derived from it. Side-chain parts run from the residue outwards. [ ]: non-standard residue; d: D form. The star is where a group is joined. C20 diacid = O=C(O)CCCCCCCCCCCCCCCCCCC(=O)*; C18 diacid = O=C(O)CCCCCCCCCCCCCCCCC(=O)*; γGlu = O=C(O)[C@H](CCC(=O)[*:2])N[*:1]; AEEA = NCCOCCOCC(=O)O; Aib = CC(C)(N)C(=O)O
Tests used:
[1] = Pharmacokinetics of selected compounds in mice; format: in vivo, C57BL/6J mice; details: male, C57BL/6J, mouse, plasma; for bioavailability: subcutaneous, AUCinf (s.c.)/AUCinf (i.v.)x100, values marked * capped to 100%
Procedure: Pharmacokinetics of Selected Compounds in Mice
C57BL/6J mice (males with a body weight of approximately 25 g) were given either a single subcutaneous (s.c.) bolus or a single intravenous (i.v.) bolus of each peptide to be tested.
Following s.c. administration of the selected compounds (50, 100 or 200 nmol/kg), blood samples were drawn at 8 (eight) timepoints up to 72 hours post-dose. Following i.v. administration of the selected compounds (50, 100 or 200 nmol/kg), blood samples were drawn at 8 (eight) timepoints up to 48 hours post-dose. Blood samples were drawn by sublingual bleeding. The dosing vehicle was a phosphate buffer containing mannitol (pH 7.5).
At each sampling time point, samples from two mice were drawn, i.e. 16 mice were included for each compound and each administration route. The mice were euthanized immediately after blood sampling by cervical dislocation. Plasma samples were analyzed after solid phase extraction (SPE) or protein precipitation followed by liquid chromatography mass spectrometry (LC-MS/MS). Mean plasma concentrations were used for calculation of the pharmacokinetic parameters using the non-compartmental approach in Phoenix WinNonlin 6.3. Plasma terminal elimination half-life (T½) was determined as […] where λz is the magnitude of the slope of the log linear regression of the log concentration versus time profile during the terminal phase. Bioavailability was determined as AUCinf (s.c.)/AUCinf (i.v.)×100, where AUCinf is the area under the plasma concentration−time curve extrapolated to infinity (AUCinf=AUClast+Clast/λz, where Clast is the last observed plasma concentration). Tmax is the post-dose time where the maximal plasma concentration was observed.

human GIP R = target: T1, human GIP R (Homo sapiens, UniProt P48546); experiment: Human GIP receptor (GIP R) activity assay, cAMP induction (AlphaScreen) in HEK293 cells; format: cell-based; details: read-out: hGIP-R cAMP EC50 average value
T1 construct: expressed in transfected cells
T1 sequence (P48546 22-466): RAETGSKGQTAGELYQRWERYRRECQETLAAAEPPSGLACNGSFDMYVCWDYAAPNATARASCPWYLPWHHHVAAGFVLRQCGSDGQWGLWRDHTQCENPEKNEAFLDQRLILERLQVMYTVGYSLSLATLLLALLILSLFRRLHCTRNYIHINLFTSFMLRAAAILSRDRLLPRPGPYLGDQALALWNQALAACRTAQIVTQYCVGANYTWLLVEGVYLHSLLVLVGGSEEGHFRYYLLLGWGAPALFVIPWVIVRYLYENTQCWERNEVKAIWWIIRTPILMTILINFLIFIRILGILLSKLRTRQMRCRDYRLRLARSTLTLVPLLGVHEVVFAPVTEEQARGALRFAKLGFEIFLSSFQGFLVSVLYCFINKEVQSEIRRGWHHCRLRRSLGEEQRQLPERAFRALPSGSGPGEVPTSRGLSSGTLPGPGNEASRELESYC
How it was run: (§1)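 Stable HEK293 clones expressing human GIP R or GLP-1 R, seeded 1 day before; cells washed in Tyrode's buffer (10 mM HEPES, pH 7.4), stimulated, then lysed. cAMP measured by AlphaScreen bead competition (1 h, room temperature, dark). EC50 = concentration giving half-maximal cAMP elevation, from curves of absolute cAMP (nM) vs log concentration.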

human GLP-1 R = target: T2, human GLP-1 R (Homo sapiens, UniProt P43220); experiment: Human GLP-1 receptor (GLP-1 R) activity assay, cAMP induction (AlphaScreen) in HEK293 cells; format: cell-based
T2 construct: expressed in transfected cells
How it was run: as §1

[2] = target: T3, human GIP receptor (human) (UniProt P48546); experiment: cell-based or functional assay
T3 sequence: T1 sequence (P48546 22-466)

[3] = iv, single i.v. bolus, read-out: T½ terminal elimination half-life, i.v. (converted)
[4] = Table 2, HEK293 cells expressing human GIP R
[5] = Table 2a, secondary assay study
[6] = Table 3, most comprehensive data
[7] = Table 2, HEK293 cells expressing human GLP-1 R, read-out: hGLP1-R cAMP EC50 average value
[8] = Table 2a, secondary assay study, read-out: hGLP1-R cAMP EC50 average value
[9] = sc, single s.c. bolus, read-out: T½ terminal elimination half-life, s.c. (converted)

T2 sequence (P43220 24-463): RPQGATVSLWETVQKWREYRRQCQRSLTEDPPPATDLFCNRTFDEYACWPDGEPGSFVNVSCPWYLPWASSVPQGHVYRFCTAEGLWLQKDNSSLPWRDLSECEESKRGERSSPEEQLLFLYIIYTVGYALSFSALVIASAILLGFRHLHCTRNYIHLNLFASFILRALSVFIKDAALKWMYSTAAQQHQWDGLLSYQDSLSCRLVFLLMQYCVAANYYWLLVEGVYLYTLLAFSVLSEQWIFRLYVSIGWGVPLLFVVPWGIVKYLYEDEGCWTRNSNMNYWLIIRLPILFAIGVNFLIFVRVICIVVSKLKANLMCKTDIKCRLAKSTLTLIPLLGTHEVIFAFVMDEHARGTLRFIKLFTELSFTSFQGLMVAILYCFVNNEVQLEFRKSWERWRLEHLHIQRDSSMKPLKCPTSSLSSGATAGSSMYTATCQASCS

Compound	EC50, hGIP-R cAMP [2] [pM]	half-life [1, 3] [h]	bioavailability [1] [%]	Tmax ([1]; sc, single s.c. bolus) [h]	pEC50 (human GIP R; [4])	pEC50 (human GIP R; [5])	pEC50 (human GIP R; [6])	pEC50 (human GLP-1 R; [7])	pEC50 (human GLP-1 R; [8])	half-life [1, 9] [h]	pEC50 (human GLP-1 R; Table 3, most comprehensive data, read-out: hGLP-1-R cAMP EC50 average value)
CC[C@H](C)[C@H](NC(=O)[C@H](CO)NC(=O)[C@H](Cc1ccc(O)cc1)NC(=O)[C@H](CC(=O)O)NC(=O)[C@H](CO)NC(=O)[C@@H](NC(=O)[C@H](Cc1ccccc1)NC(=O)[C@@H](NC(=O)CNC(=O)[C@H](CCC(=O)O)NC(=O)C(C)(C)NC(=O)[C@@H](N)Cc1ccc(O)cc1)[C@@H](C)O)[C@@H](C)O)C(=O)N[C@@H](Cc1ccc(O)cc1)C(=O)N[C@@H](CC(C)C)C(=O)N[C@@H](CC(=O)O)C(=O)N[C@@H](CCCCN)C(=O)N[C@@H](CCCCNC(=O)CC[C@H](NC(=O)CCCCCCCCCCCCCCCCC(=O)O)C(=O)O)C(=O)N[C@@H](C)C(=O)N[C@@H](CCC(N)=O)C(=O)N[C@@H](CCCNC(=N)N)C(=O)N[C@@H](C)C(=O)N[C@@H](Cc1ccccc1)C(=O)N[C@H](C(=O)N[C@@H](CCC(=O)O)C(=O)N[C@@H](Cc1c[nH]c2ccccc12)C(=O)N[C@@H](CC(C)C)C(=O)N[C@@H](CC(C)C)C(=O)N[C@@H](C)C(=O)N[C@@H](CCC(N)=O)C(=O)NCC(=O)N1CCC[C@H]1C(=O)N[C@@H](CO)C(=O)N[C@@H](CO)C(=O)NCC(=O)N[C@@H](C)C(=O)N1CCC[C@H]1C(=O)N1CCC[C@H]1C(=O)N1CCC[C@H]1C(=O)N[C@@H](CO)C(N)=O)C(C)C [Compound 3] (H-Y[Aib]EGTFTSDYSIYLDKK([γGlu-C18 diacid])AQRAFVEWLLAQGPSSGAPPPS-NH2)	–	9.1	89	8	11.07	11.05	11.05	10.96	10.96	–	–
CC[C@H](C)[C@H](NC(=O)[C@H](CO)NC(=O)[C@H](Cc1ccc(O)cc1)NC(=O)[C@H](CC(=O)O)NC(=O)[C@H](CO)NC(=O)[C@@H](NC(=O)[C@H](Cc1ccccc1)NC(=O)[C@@H](NC(=O)CNC(=O)[C@H](CCC(=O)O)NC(=O)C(C)(C)NC(=O)[C@@H](N)Cc1ccc(O)cc1)[C@@H](C)O)[C@@H](C)O)C(=O)N[C@@H](Cc1ccc(O)cc1)C(=O)N[C@@H](CC(C)C)C(=O)N[C@@H](CC(=O)O)C(=O)N[C@@H](CCCCN)C(=O)N[C@@H](CCCCNC(=O)COCCOCCNC(=O)COCCOCCNC(=O)CC[C@H](NC(=O)CCCCCCCCCCCCCCCCCCC(=O)O)C(=O)O)C(=O)N[C@@H](C)C(=O)N[C@@H](CCC(N)=O)C(=O)N[C@@H](CCCNC(=N)N)C(=O)N[C@@H](C)C(=O)N[C@@H](Cc1ccccc1)C(=O)N[C@H](C(=O)N[C@@H](CCC(=O)O)C(=O)N[C@@H](Cc1c[nH]c2ccccc12)C(=O)N[C@@H](CC(C)C)C(=O)N[C@@H](CC(C)C)C(=O)N[C@@H](C)C(=O)N[C@@H](CCC(N)=O)C(=O)NCC(=O)N1CCC[C@H]1C(=O)N[C@@H](CO)C(=O)N[C@@H](CO)C(=O)NCC(=O)N[C@@H](C)C(=O)N1CCC[C@H]1C(=O)N1CCC[C@H]1C(=O)N1CCC[C@H]1C(=O)N[C@@H](CO)C(N)=O)C(C)C [Compound 2] (H-Y[Aib]EGTFTSDYSIYLDKK([AEEA-AEEA-γGlu-C20 diacid])AQRAFVEWLLAQGPSSGAPPPS-NH2)	–	16.6	83	6	11.31	11.10	11.10	11.08	10.96	16.5	10.96
CC[C@H](C)[C@H](NC(=O)[C@H](CO)NC(=O)[C@H](Cc1ccc(O)cc1)NC(=O)[C@H](CC(=O)O)NC(=O)[C@H](CO)NC(=O)[C@@H](NC(=O)[C@H](Cc1ccccc1)NC(=O)[C@@H](NC(=O)CNC(=O)[C@H](CCC(=O)O)NC(=O)C(C)(C)NC(=O)[C@@H](N)Cc1ccc(O)cc1)[C@@H](C)O)[C@@H](C)O)C(=O)N[C@@H](C)C(=O)N[C@@H](CC(C)C)C(=O)N[C@@H](CCC(=O)O)C(=O)N[C@@H](CCCCN)C(=O)N[C@@H](CCCCNC(=O)COCCOCCNC(=O)COCCOCCNC(=O)CC[C@H](NC(=O)CCCCCCCCCCCCCCCCC(=O)O)C(=O)O)C(=O)N[C@@H](C)C(=O)N[C@@H](CCC(N)=O)C(=O)N[C@@H](CCCNC(=N)N)C(=O)N[C@@H](C)C(=O)N[C@@H](Cc1ccccc1)C(=O)N[C@H](C(=O)N[C@@H](CCC(=O)O)C(=O)N[C@@H](Cc1c[nH]c2ccccc12)C(=O)N[C@@H](CC(C)C)C(=O)N[C@@H](CC(C)C)C(=O)N[C@@H](C)C(=O)N[C@@H](CCC(N)=O)C(=O)N[C@@H](CCCCN)C(N)=O)C(C)C [Compound 16] (H-Y[Aib]EGTFTSDYSIALEKK([AEEA-AEEA-γGlu-C18 diacid])AQRAFVEWLLAQK-NH2)	–	7.4	50	6	11.09	–	11.10	10.82	–	–	–
CC[C@H](C)[C@H](NC(=O)[C@H](CO)NC(=O)[C@H](CC(C)C)NC(=O)[C@H](CC(=O)O)NC(=O)[C@H](CO)NC(=O)[C@@H](NC(=O)[C@H](Cc1ccccc1)NC(=O)[C@@H](NC(=O)CNC(=O)[C@H](CCC(=O)O)NC(=O)C(C)(C)NC(=O)[C@@H](N)Cc1ccc(O)cc1)[C@@H](C)O)[C@@H](C)O)C(=O)N[C@@H](C)C(=O)N[C@@H](CC(C)C)C(=O)N[C@@H](CCC(=O)O)C(=O)N[C@@H](CCCCN)C(=O)N[C@@H](CCCCNC(=O)COCCOCCNC(=O)COCCOCCNC(=O)CC[C@H](NC(=O)CCCCCCCCCCCCCCCCCCC(=O)O)C(=O)O)C(=O)N[C@@H](C)C(=O)N[C@@H](CCC(N)=O)C(=O)N[C@@H](CCCNC(=N)N)C(=O)N[C@@H](C)C(=O)N[C@@H](Cc1ccccc1)C(=O)N[C@H](C(=O)N[C@@H](CCC(=O)O)C(=O)N[C@@H](Cc1c[nH]c2ccccc12)C(=O)N[C@@H](CC(C)C)C(=O)N[C@@H](CC(C)C)C(=O)N[C@@H](C)C(=O)N[C@@H](CCC(N)=O)C(=O)N[C@@H](CCCCN)C(=O)N1CCC[C@H]1C(=O)N[C@@H](CO)C(=O)N[C@@H](CO)C(=O)NCC(=O)N[C@@H](C)C(=O)N1CCC[C@H]1C(=O)N1CCC[C@H]1C(=O)N1CCC[C@H]1C(=O)N[C@@H](CO)C(N)=O)C(C)C [Compound 34] (H-Y[Aib]EGTFTSDLSIALEKK([AEEA-AEEA-γGlu-C20 diacid])AQRAFVEWLLAQKPSSGAPPPS-NH2)	–	14.9	79	8	10.92	–	–	10.82	–	17.1	–

The next lines start with results.

EC50, hGIP-R cAMP [2] [pM]	Compound	half-life [1, 3] [h]	bioavailability [1] [%]	Tmax ([1]; sc, single s.c. bolus) [h]	pEC50 (human GIP R; [4])	pEC50 (human GIP R; [5])	pEC50 (human GIP R; [6])	pEC50 (human GLP-1 R; [7])	pEC50 (human GLP-1 R; [8])	half-life [1, 9] [h]	pEC50 (human GLP-1 R; Table 3, most comprehensive data, read-out: hGLP-1-R cAMP EC50 average value)
3	hGIP (from UniProt P09681 52-93) (ligand)	–	–	–	–	–	–	–	–	–	–
> 10000	hGLP-1 (from UniProt P01275 92-128) (ligand)	–	–	–	–	–	–	–	–	–	–

Reference: patent US10093713B2, “GIP-GLP-1 dual agonist compounds and methods” (priority 2013, dated 2018)
